Assay results published in patent publication US20250262336A1, “[177LU] LUTETIUM-PSMA I&T COMPOSITION AND DOSIMETRY, KIT, METHOD OF MAKING, AND METHOD OF USING THEREOF” (Curium US LLC, priority 2023, published 2025).
Values joined by “and” are separate entries in the source; they are usually repeats but may differ in a detail not shown here. Equal entries are not always repeated.

Experiments:
[1] = Cycle 1 plasma PK (gamma counting of plasma, bi-exponential fit); format: in vivo, human
Method: Additionally, for PK assessment, whole blood samples were collected at six timepoints (Pre-Infusion, 1 h, 4 h, 24 h, 48 h, and 168 h) and processed to extract plasma. All plasma samples were gamma counted locally for analysis of pharmacokinetics.
PK plasma samples were collected at pre-Infusion, 1 h, 4 h, 24 h, 48 h, and 168 h, and counted for radioactivity. Blood samples were first centrifuged to extract plasma, and then the radioactivity in plasma was counted in a gamma counter.
Whole blood samples were collected as detailed in the protocol Schedule of Events i.e. pre-injection, and then at 1 h, 4 h, 24 h, 48 h, and 168 h post-injection. The samples were first centrifuged to separate plasma, and the radioactivity in the plasma was then measured using a gamma counter. Plasma concentrations were subsequently fitted with a bi-exponential function to derive outcome parameters such as the half-life and clearance rate of the radiopharmaceutical in the plasma.
For each sample, collect sufficient sample volume for triplicate aliquots to meet the measurement requirements of your institution's gamma counter and perform measurements according to standard procedure. Blood will be processed and plasma will be measured on the gamma counter, as described in the following subsections.
All blood samples drawn must be aliquoted 3 times, labeled appropriately, and stored per standard procedure for later measurement of plasma in the qualified gamma counter. All samples will be counted as a group for each patient for each Cycle, no later than 24 hours following the final sample collection.
Collect 5 ml of blood in a BD PPT system (Plasma Protein Preservation Tube-draw volume of 5 mL).
Centrifuge at 18-25° C. at 1100 g for 10 min. The resulting supernatant is designated plasma.
Gamma Counter Measurements: All patient samples must be counted for 60 seconds, with a counting energy window of 102-229 keV.

[2] = Cycle 1 biodistribution: SPECT/CT time-activity curves (fraction of injected activity); format: in vivo, human; conditions: excluding patient 42-030
Method: This Example presents the biodistribution, dosimetry, and pharmacokinetics (PK) results of a PK/Dosimetry sub-study performed as part of a Phase III trial. Twenty-seven (27) patients were administered a target activity of 7.4±10% GBq of ^177Lu-PSMA-I&T and underwent single photon emission computed tomography (SPECT)/computed tomography (CT) imaging at four timepoints (4 h, 24 h, 48 h, and 168 h). Image data was analysed to compute time-activity curves (TACs) and subsequently time-integrated activity coefficients (TIACs) in each organ of interest and in organs showing appreciable and meaningful ^177Lu-PSMA-I&T activity. Organ Level Internal Dose Assessment (OLINDA 2.2.3) was used to compute organ and whole body absorbed radiation doses for each patient.
All participating sites underwent a rigorous site setup process during which all dose calibrators, scanners, and gamma counters used in the sub-study were calibrated. Sites were allowed to enroll patients in the sub-study only after the completion and approval of all site setup processes by Invicro. Patients underwent SPECT/CT imaging, with anatomical coverage typically extending from the salivary glands to the pelvis, following the administration of a targeted 7.4±10% GBq of ^177Lu-PSMA-I&T at cycle 1. SPECT/CT imaging was performed at four timepoints: 4 h, 24 h, 48 h, and 168 h post-injection. Additionally, a subset of patients imaged at Cycle 1 (16 out of 27), were also imaged at Cycle 3 (Table 2).
Volume of interest (VOI) (kidneys, bladder, liver, lumbar vertebrae L2-L4, lacrimal glands, salivary glands [parotid and submandibular glands], and whole body) were delineated on each dataset by a trained image analyst. […]
Clearance of the radiopharmaceutical was derived from a data-appropriate fit of each organ's TAC. […] TIACs were calculated through analytical integration of the curve fit extrapolated to infinity. […] The remainder activity was determined by subtracting the cumulative organ TIACs from the whole body TIAC. […]

[3] = Cycle 1, plasma, patient 42-030 excluded

O=C(O)CC[C@H](NC(=O)N[C@@H](CCCCNC(=O)CCCCCCC(=O)NCCCC[C@@H](NC(=O)[C@@H](Cc1ccccc1)NC(=O)[C@@H](Cc1ccc(O)c(I)c1)NC(=O)CC[C@H](C(=O)O)N1CCN(CC(=O)O)CCN(CC(=O)O)CCN(CC(=O)O)CC1)C(=O)O)C(=O)O)C(=O)O [^177Lu-PSMA-I&T, (3S,7 S,26R,29R,32R,37R)-29-benzyl-32-(4-hydroxy-3-iodobenzyl)-5,13,20,28,31,34-hexaoxo-37-(4,7,10-tris(carboxymethyl)-1,4,7,10-tetraazacyclododecan-1-yl)-4,6,12,21,27,30,33-heptaazaheptatriacontane-1,3,7,26,37-pentacarboxylic acid; lutetium-177 (III), metal not drawn]
Time of Peak Concentration ([1]; Cycle 1, plasma, individual patients, time of first sample): 53.00 min and 60.00 min (6×) and 51.00 min (2×) and 58.00 min and 61.00 min (2×) and 50.00 min and 63.00 min and 57.00 min and 55.00 min and 52.00 min (2×) and 68.00 min and 71.00 min and 65.00 min and 33.00 min and 40.00 min and 69.00 min and 56.00 min and 127.00 min and 47.00 min
Peak Concentration Value ([1]; Cycle 1, plasma, individual patients, value at first sample): 0.04 fIA/L (10×) and 0.03 fIA/L (4×) and 0.05 fIA/L (7×) and 0.01 fIA/L and 0.06 fIA/L (2×) and 0.02 fIA/L and 0.07 fIA/L (2×)
AUC Total, Mean [1, 3]: 22.77 fIA/L × min
AUC Total, max [1, 3]: 37.86 fIA/L × min
AUC Total, median [1, 3]: 20.84 fIA/L × min
AUC Total, min [1, 3]: 3.07 fIA/L × min
Peak Concentration Value, Mean [1, 3]: 0.04 fIA/L
Peak Concentration Value, max [1, 3]: 0.07 fIA/L
Peak Concentration Value, median [1, 3]: 0.04 fIA/L
Peak Concentration Value, min [1, 3]: 0.01 fIA/L
Time of Peak Concentration [1, 3]: 33.00 min
Time of Peak Concentration, Mean [1, 3]: 59.19 min
Time of Peak Concentration, max [1, 3]: 127.00 min
Time of Peak Concentration, median [1, 3]: 59.00 min
Vc, Mean [1, 3]: 20.29 L
Vc, max [1, 3]: 111.78 L
Vc, median [1, 3]: 16.33 L
Vc, min [1, 3]: 9.92 L
time to peak, patient 80-007 ([1]; cycle 1, first post-administration sample acquired with a delay): 127 min
whole body activity retention at 4 h, max [2]: 78%
whole body activity retention at 4 h, min [2]: 24%
whole body mean activity retention at 4 h [2]: 44%±13%
